Source: patent publication US20250151729A1, “METHOD FOR REDUCING OR PREVENTING EFFECT OF SALT STRESS ON PLANT” (NIPPON SODA CO., LTD, priority 2022, published 2025)

Legend:
Type in all cases: in vivo
[1] = test system: soybean (Enrei); test: Test Example 5: soybean pot test, 8 g/L sodium chloride solution poured over soil; conditions: 8 g/L NaCl
Description: (§1) (1) Example 5a: 8 g/L sodium chloride solution and chemical solution 5a were poured.
(§2) (2) Comparative Example 5a: 8 g/L sodium chloride solution and water were poured.
(§3) (3) Comparative Example 5b: Water was poured.
(§4) Plastic pots were filled with Kannami soil, and seeds of edible corn (Idaho Sweet 88) and soybean (Enrei) were sowed in their respective pots, three seeds for each pot (3 cm in depth). Each test was repeated three times. The plants were grown with subirrigation in a greenhouse.
(§5) A flowable agent containing 5% of the compound of formula (I)-1 was diluted 103 times with water to prepare chemical solution 5, and 17.3 mL of this chemical solution was poured for each pot on the 8th day after sowing (only Example 5a).
(§6) After the chemical treatment, with a pot without holes placed at the bottom, tap water was misted from above on weekends and holidays, and 50 mL of tap water was poured over the soil for each pot every weekday.
(§7) From the 11th day after sowing, 8 g/L sodium chloride solution was poured over the soil, 50 mL for each pot, every day (only Example 5a and Comparative Example 5a).
(§8) On the 19th day after sowing, the largest root length (cm), the plant height (cm), and the top and root dry weights (g) were measured.

[2] = test system: wheat (Norin 61); test: Test Example 1: wheat seeds on filter paper under 125 mM sodium chloride salt stress; conditions: for Foliage Length / Root Length / Root Number of roots / Foliage Recovery percentage / Root Recovery percentage: after 6 days; for Foliage Length / Root Length / Root Number of roots: average of six seeds; for Foliage Recovery percentage / Root Recovery percentage: relative to Comparative Examples 1a and 1b
Description: A flowable agent containing 10% of the compound of formula (I)-1 was diluted 103 times and 104 times with water to obtain chemical solution 1a and chemical solution 1b, respectively.
(§9) Eight layers of filter paper were placed at the center of a laboratory dish, and seeds (six seeds) of wheat (Norin 61) were placed on the filter paper. Four of these were prepared.
(1) 125 mM sodium chloride and 10 mL of chemical solution 1a were poured into the laboratory dish (Example 1a).
(2) 125 mM sodium chloride and 10 mL of chemical solution 1b were poured into the laboratory dish (Example 1b).
(3) 125 mM sodium chloride and 10 mL of water were poured into the laboratory dish (Comparative Example 1a).
(4) 10 mL of water was poured into the laboratory dish (Comparative Example 1b).
Each laboratory dish was placed in a growth chamber set at 25° C. and light/dark=16/8. After 6 days, the number of roots, the root length, and the foliage length were measured for six seeds in each of (1) to (4).
The recovery percentage was calculated from the following equation:
[formula] • X: Chemical treatment, sodium chloride applied • Y: No chemical treatment, sodium chloride applied • Z: No chemical treatment, no sodium chloride treatment

[3] = test system: rice (Koshihikari: Oryza sativa); test: Test Example 4: rice in Wagner pots under submerged conditions with sodium chloride aqueous solution
Description: In the middle of June, Arakidatsuchi (2 mm sieved, Akagi Engei) was placed in a Wagner pot (1/5000 a), and five grains of dried seed rice (Koshihikari: Oryza sativa) were sown at the center of the Wagner pot at a sowing depth of 3 mm to 5 mm, thus starting raising by direct seeding under submerged conditions. Individuals except for one well-grown individual from which 2 to 3 tillers appeared were cut for thinning with scissors on the 28th day after sowing. Ten pots of these were prepared.
Midseason drainage was performed on the 47th to 49th day after sowing. A flowable agent containing 10% of the compound of formula (I)-1 was diluted 103 times with water to obtain chemical solution 4. […]
The number of withered, dead stems, the number of rolled leaves, the number of crown roots, the amount of water decrease, and the length of leaf tip blight were measured on the 68th day after sowing. […]
The plant height, the number of stems, the culm length, the number of ears, the ear length, the number of whitened unhulled rice grains, the leaf color of flag leaves, and the numbers of flag leaf blights and withered, dead leaves were measured in the heading period or after. […]
The culm length, the number of ears, the ear length, the number of whitened unhulled rice grains, the leaf color of flag leaves, and the numbers of flag leaf blights and withered, dead leaves were measured on the 106th day after sowing. […]

[4] = test system: corn (P2307); test: Test Example 2: corn seeds on filter paper under 125 mM sodium chloride salt stress
Description: A flowable agent containing 10% of the compound of formula (I)-1 was diluted 106 times with water to obtain chemical solution 2a.
Eight layers of filter paper were placed at the center of a laboratory dish, and seeds (five seeds) of corn (P2307) were placed on the filter paper. Four of these were prepared.
(1) 125 mM sodium chloride and 10 mL of chemical solution 2a were poured into the laboratory dish (Example 2a).
(2) 125 mM sodium chloride and 10 ml of water were poured into the laboratory dish (Comparative Example 2a).
(3) 10 mL of water was poured into the laboratory dish (Comparative Example 2b).
Each laboratory dish was placed in a growth chamber set at 25° C. and light/dark=16/8. After 4 days, the number of roots, the root length, and the foliage length were measured for five seeds in each of (1) to (3). The recovery percentage was calculated in the same manner as in Test Example 1.

[5] = test system: wheat (Norin 61); test: Test Example 3: wheat seeds on filter paper under 125 mM sodium chloride salt stress; conditions: for Foliage Length / Root Length / Root Number of roots / Foliage Recovery percentage / Root Recovery percentage: after 4 days; for Foliage Recovery percentage / Root Recovery percentage: relative to Comparative Examples 3a and 3b
Description: A flowable agent containing 10% of the compound of formula (I)-1 was diluted 105 times and 107 times with water to obtain chemical solution 3a and chemical solution 3b, respectively.
as §9
(1) 125 mM sodium chloride and 10 mL of chemical solution 2a were poured into the laboratory dish (Example 3a).
(2) 125 mM sodium chloride and 10 mL of chemical solution 2b were poured into the laboratory dish (Example 3b).
(3) 125 mM sodium chloride and 10 ml of water were poured into the laboratory dish (Comparative Example 3a).
(4) 10 mL of water was poured into the laboratory dish (Comparative Example 3b).
Each laboratory dish was placed in a growth chamber set at 25° C. and light/dark=16/8. After 4 days, the number of roots, the root length, and the foliage length were measured for five seeds in each of (1) to (4). The recovery percentage was calculated in the same manner as in Test Example 1.

[6] = test system: wheat (variety: Kitahonami); test: Test Example 6: wheat pot test, 8 g/L sodium chloride solution poured over soil; conditions: 8 g/L NaCl
Description: (1) Example 6a: 8 g/L sodium chloride solution and chemical solution 6a were poured.
(2) Comparative Example 6a: 8 g/L sodium chloride solution and water were poured.
(3) Comparative Example 6b: Water was poured.
Plastic pots were filled with Kannami soil, and five seeds of wheat (variety: Kitahonami) were sowed at the center of each pot (3 cm in depth). Each test was repeated three times.
After sowing, the pots were allowed to stand in a growth chamber (20° C. dark room) for 4 days and then moved to a greenhouse.
A flowable agent containing 5% of a compound of formula (I)-1 was diluted 103 times with water to prepare chemical solution 6, and 17.3 mL of this chemical solution was poured for each pot on the 7th day after sowing (only Example 6a).
From the 10th day after sowing, 8 g/L sodium chloride solution was poured over the soil, 30 mL for each pot, once a day (only Example 6a and Comparative Example 6a).
On the 17th day after sowing, the largest root length (cm), the number of rooted individuals, the plant height (cm), and the top and root dry weights (g) were measured.

[7] = test system: edible corn (Idaho Sweet 88); test: Test Example 5: corn pot test, 8 g/L sodium chloride solution poured over soil; conditions: 8 g/L NaCl
Description: as §1, §2, §3, §4, §5, §6, §7, §8

[8] = 5% flowable diluted 103 times, 19th day after sowing
[9] = 17.3 mL per pot of 5% flowable diluted 103 times on 8th day, measured 19th day after sowing
[10] = vs salt stress without the compound
[11] = 125 mM sodium chloride + 10 mL chemical solution 1a (10% flowable diluted 103 times)
[12] = 125 mM sodium chloride + 10 mL chemical solution 1b (10% flowable diluted 104 times)
[13] = 125 mM sodium chloride + chemical solution 1a (diluted 103 times)
[14] = 125 mM sodium chloride + chemical solution 1b (diluted 104 times)
[15] = 125 mM sodium chloride salt stress, vs salt stress without the compound
[16] = 125 mM sodium chloride + 10 mL chemical solution 2a (10% flowable diluted 106 times), after 4 days, average of five seeds
[17] = 125 mM sodium chloride + chemical solution 2a (diluted 106 times), after 4 days, relative to Comparative Examples 2a and 2b
[18] = 125 mM sodium chloride + 10 mL chemical solution 3a (10% flowable diluted 105 times; b105 prints chemical solution 2a)
[19] = 125 mM sodium chloride + 10 mL chemical solution 3b (10% flowable diluted 107 times; b106 prints chemical solution 2b)
[20] = 125 mM sodium chloride + chemical solution 3a (diluted 105 times)
[21] = 125 mM sodium chloride + chemical solution 3b (diluted 107 times)
[22] = 5% flowable diluted 103 times, 17th day after sowing
[23] = 17.3 mL per pot of 5% flowable diluted 103 times on 7th day, measured 17th day after sowing

Cn1nnnc1C(=NOCc1cccc(NC(=O)OC(C)(C)C)n1)c1ccccc1 [compound of formula (I)-1]
Plant height Soybean A: number relative to 100 of Comparative Example 5b [1, 8]: 101 | Root dry weight Soybean A: number relative to 100 of Comparative Example 5b [1, 8]: 72 | Root length Soybean A: number relative to 100 of Comparative Example 5b [1, 8]: 105 | Top dry weight Soybean A: number relative to 100 of Comparative Example 5b [1, 8]: 91 | Plant height Soybean [1, 9]: 48.3 cm | Root dry weight Soybean [1, 9]: 0.15 g | Root length Soybean [1, 9]: 14.3 cm | Top dry weight Soybean [1, 9]: 0.72 g | Soybean values compared with Comparative Example 5a (in words) [1, 10]: better values | Foliage Length [2, 11]: 68.8 mm | Root Length [2, 11]: 49.6 mm | Root Number of roots [2, 11]: 5.6 | Foliage Length [2, 12]: 64.2 mm | Root Length [2, 12]: 50.2 mm | Root Number of roots [2, 12]: 5.2 | Foliage Recovery percentage [2, 13]: 31.0% | Root Recovery percentage [2, 13]: 8.1% | Foliage Recovery percentage [2, 14]: 15.8% | Root Recovery percentage [2, 14]: 9.1% | Recovery compared with Comparative Example 1a (in words) [2, 15]: more recovery | Growth and yield measurements, effect of chemical treatment (in words) ([3]; 2 g/L sodium chloride aqueous solution, 28 g ai per 10 a under submerged conditions): same effect was observed | Growth and yield measurements compared with Comparative Example 4a (in words) ([3]; 10 g/L sodium chloride aqueous solution, chemical solution 4, 56 mL per pot, 280 g ai per 10 a, on 50th day after sowing, FIGS. 1 to 14): better values | Foliage Length [4, 16]: 17.2 mm | Root Length [4, 16]: 38.6 mm | Root Number of roots [4, 16]: 5.2 | Foliage Recovery percentage [4, 17]: 28.3% | Root Recovery percentage [4, 17]: 33.8% | Recovery compared with Comparative Example 2a (in words) [4, 15]: more recovery | Foliage Length [5, 18]: 23.3 mm | Root Length [5, 18]: 30.8 mm | Root Number of roots [5, 18]: 4.0 | Foliage Length [5, 19]: 25.0 mm | Root Length [5, 19]: 29.0 mm | Root Number of roots [5, 19]: 4.0 | Foliage Recovery percentage [5, 20]: 0.0% | Root Recovery percentage [5, 20]: 41.8% | Foliage Recovery percentage [5, 21]: 0.0% | Root Recovery percentage [5, 21]: 19.0% | Recovery in the root compared with Comparative Example 3a (in words) [5, 15]: more recovery in the root | Largest root length Wheat A: number relative to 100 of Comparative Example 6b [6, 22]: 100 | Number of rooted individuals Wheat A: number relative to 100 of Comparative Example 6b [6, 22]: 104 | Plant height Wheat A: number relative to 100 of Comparative Example 6b [6, 22]: 98 | Root dry weight Wheat A: number relative to 100 of Comparative Example 6b [6, 22]: 94 | Top dry weight Wheat A: number relative to 100 of Comparative Example 6b [6, 22]: 96 | Largest root length Wheat [6, 23]: 18.3 cm | Number of rooted individuals Wheat [6, 23]: 8.0 Number | Plant height Wheat [6, 23]: 29.3 cm | Root dry weight Wheat [6, 23]: 0.034 g | Top dry weight Wheat [6, 23]: 0.059 g | Number of rooted individuals, plant height and root dry weight compared with Comparative Example 6a (in words) [6, 10]: better | Plant height Corn A: number relative to 100 of Comparative Example 5b [7, 8]: 91 | Root dry weight Corn A: number relative to 100 of Comparative Example 5b [7, 8]: 90 | Root length Corn A: number relative to 100 of Comparative Example 5b [7, 8]: 96 | Top dry weight Corn A: number relative to 100 of Comparative Example 5b [7, 8]: 83 | Plant height Corn [7, 9]: 37.0 cm | Root dry weight Corn [7, 9]: 0.10 g | Root length Corn [7, 9]: 17.3 cm | Top dry weight Corn [7, 9]: 0.40 g | Corn values compared with Comparative Example 5a (in words) [7, 10]: better values
